Test results as given in PubChem BioAssay (NCI).
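48-hour exposure; five concentrations; linearly interpolated endpoints. At the GI50, growth is halved. The concentration for full growth arrest is given as TGI.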

Key:
Test in all cases: NCI anticancer screen, dose series, 48 h
KM20L2 colon = tested on: KM20L2 colon
LXFL 529 NSCLC = tested on: LXFL 529 NSCLC
DMS 114 small cell lung = tested on: DMS 114 small cell lung
SNB-78 CNS = tested on: SNB-78 CNS
XF 498 CNS = tested on: XF 498 CNS
M19-MEL melanoma = tested on: M19-MEL melanoma

Compound	TGI (KM20L2 colon)	TGI (LXFL 529 NSCLC)	TGI (DMS 114 small cell lung)	TGI (SNB-78 CNS)	TGI (XF 498 CNS)	TGI (M19-MEL melanoma)	GI50 (KM20L2 colon)	GI50 (LXFL 529 NSCLC)	GI50 (DMS 114 small cell lung)	GI50 (SNB-78 CNS)	GI50 (XF 498 CNS)	GI50 (M19-MEL melanoma)
CC1(C)C(=O)C(C)(C)C1=NN	> 100 µM	> 100 µM	> 100 µM	> 100 µM	> 100 µM	> 100 µM	–	–	–	–	–	–
O=C1C=CC=CC2CC=C[C@@H](O)C12 (stereo partly drawn)	56 µM	36.2 µM	38.7 µM	> 100 µM	–	34.2 µM	–	–	–	–	–	–
O=C(c1ccc(Cl)cc1)c1ccc(OCCCCCCCCCCOc2ccc(C(=O)c3ccc(Cl)cc3)cc2)cc1	> 100 µM	–	> 100 µM	> 100 µM	–	–	–	–	–	–	–	–
O=C(Nc1ccc(Cl)cc1Cl)C(=O)C(C(=O)c1ccc2ccccc2c1)C1OC(=O)c2ccccc21 (stereo not drawn)	–	17.6 µM	46.2 µM	78.4 µM	–	30.3 µM	–	–	–	–	–	–
O=C(Nc1cccs1)c1c(O)[nH]c(=S)[nH]c1=O	> 100 µM	–	> 100 µM	–	–	–	–	–	–	–	–	–
O=C(O)COc1ccc(O)c2c1C(=O)CCCC2=O	> 100 µM	> 100 µM	> 100 µM	> 100 µM	> 100 µM	> 100 µM	–	–	–	–	–	–
COc1ccccc1N=C(N)N/N=C/c1c[nH]c2ccccc12	26.1 µM	13.1 µM	15.5 µM	25.1 µM	16.9 µM	24.7 µM	–	–	–	–	–	–
CCc1cccc(C(C)C)c1NC(=O)C(=O)CC(=O)c1c(C)n([O-])c2ccccc2[n+]1=O	> 100 µM	> 100 µM	> 100 µM	> 100 µM	> 100 µM	> 100 µM	–	–	–	–	–	–
CCO/C=C/C(C)C1(C(=O)OCC)CCCCC1=O (stereo not drawn)	> 100 µM	> 100 µM	> 100 µM	> 100 µM	> 100 µM	> 100 µM	–	–	–	–	–	–
COc1cc(/C=C\c2ccccc2)cc(OC)c1OC	3.31 µM	> 68.1 µM	> 28 µM	> 89.8 µM	23.7 µM	> 100 µM	–	–	–	–	–	–
CN(C)c1ccc([O-])cc1.CN(C)c1ccc([O-])cc1.CN(C)c1ccc([O-])cc1.CN(C)c1ccc([O-])cc1.[Ti+4]	> 100 µM	> 100 µM	> 100 µM	> 100 µM	> 100 µM	> 100 µM	> 100 µM	25.9 µM	50.7 µM	> 100 µM	> 100 µM	> 100 µM
OC1c2ccccc2C2(O)C1C(c1ccccc1)C(c1ccccc1)C2(O)c1ccccc1 (stereo not drawn)	22.5 µM	54.6 µM	41.8 µM	–	–	38 µM	–	–	–	–	–	–
CCCNCCCC(NC(C)=O)C(=O)NCc1ccccc1 (stereo not drawn)	> 100 µM	> 100 µM	> 100 µM	> 100 µM	> 100 µM	> 100 µM	–	–	–	–	–	–
CC(=O)N[C@@H]1C(O)CN2C(=O)C(=O)O[C@H](C(O)CO)[C@@H]12 (stereo partly drawn)	> 100 µM	> 100 µM	> 100 µM	> 100 µM	> 100 µM	> 100 µM	–	–	–	–	–	–
